Patent US10308686B2, “Gamma-AApeptides with potent and broad-spectrum antimicrobial activity” (priority 2012, dated 2019)
In brackets after ≈: the same amount, converted by molar mass. Read-outs that look alike come from different tables or passages of the source.

Assays:
[1] = tested on: E. coli (JM109)
[2] = tested on: methicillin-resistant S. aureus (ATCC 33592); settings: for MIC, S. aureus (methicillin-resistant): Table 3; for MIC, Gram positive S. aureus: Table 7
[3] = tested on: K. pneumoniae (ATCC 13383)
[4] = tested on: C. albicans (ATCC 10231); settings: ATCC 10231
[5] = tested on: human red blood cells (hRBC's); assay: Hemolysis assay; assay type: cell-based; settings: for Hemolysis HC10 / Hemolysis HC50: red cells of human
Protocol: Freshly drawn human red blood cells (hRBC's) with additive K2 EDTA (spray-dried) were washed with PBS buffer several times and centrifuged at 1000 g for 10 min until a clear supernatant was observed. The hRBC's were resuspended in 1×PBS to get a 5% v/v suspension. Two-fold serial dilutions of γ-AApeptides dissolved in 1×PBS from 250 μg/ml through 1.6 μg/ml were added to a sterile 96-well plate to make up a total volume of 50 μL in each well. Then 50 μL of 5% v/v hRBC solution was added to make up a total volume of 100 μL in each well. The 0% hemolysis point and 100% hemolysis point were determined in 1×PBS and 0.2% Triton-X-100, respectively (Patch et al., 2003). The plate was then incubated at 37° C. for 1 h and centrifuged at 3500 rpm for 10 min. The supernatant (30 μL) was diluted with 100 μL of 1×PBS and absorption was detected by measuring the optical density at 360 nm by Biotek Synergy HT microtiter plate reader. % hemolysis was determined by the following equation: % hemolysis=(Abssample−AbsPBS)/(AbsTriton−AbsPBS)×100 H50 is the concentration of γ-AApeptide amphiphiles at which 50% hemolysis was observed. The highest concentration tested in the hemolytic assay was 500 μg/ml. 7. Fluorescence Microscopy
The sequences shown in FIG. 12 were also evaluated via hemolytic assays. Freshly drawn human red blood cells (hRBC's) with additive K2 EDTA (spray-dried) were washed with PBS buffer several times and centrifuged at 1000 g for 10 min until a clear supernatant was observed. The hRBC's were resuspended in 1×PBS to get a 5% v/v suspension. Two-fold serial dilutions of lipidated γ-AApeptides dissolved in 1×PBS from 1 mg/ml through 6.3 μg/ml were added to sterile 96-well plates to make up a total volume of 50 μL in each well. Then 50 μL of 5% v/v hRBC solution was added to make up a total volume of 100 μL in each well. The 0% hemolysis point and 100% hemolysis point were determined in 1×PBS and 0.2% Triton-X-100, respectively (Patch et al., 2003). The plate was then incubated at 37° C. for 1 h and centrifuged at 3500 rpm for 10 min. The supernatant (30 μL) was diluted with 100 μL of 1×PBS and absorption was detected by measuring the optical density at 360 nm with a Biotek Synergy HT microtiter plate reader. % hemolysis was determined by the following equation: % hemolysis=(Abs sample−Abs PBS)/(Abs Triton−Abs PBS)×100

[6] = tested on: B. subtilis (BR151)
[7] = tested on: vancomycin-resistant E. faecalis (ATCC 700802); settings: for MIC, E. faecalis (vancomycin-resistant): Table 3; for MIC, Gram positive E. faecalis: Table 7
[8] = tested on: multi-drug resistant S. epidermidis (RP62A); settings: for MIC, S. epidermidis (multi-drug resistant): Table 3; for MIC, Gram positive S. epidermidis: Table 7
[9] = tested on: multi-drug resistant P. aeruginosa ATCC 27853

| SMILES | MIC, E. coli [1] | MIC, S. aureus (methicillin-resistant) [2] | MIC, K. pneumoniae (causing pneumonia) [3] | MIC, Fungi C. albicans [4] | Hemolysis (H50) [5] | MIC, B. subtilis [6] | MIC, E. faecalis (vancomycin-resistant) [7] | MIC, S. epidermidis (multi-drug resistant) [8] | MIC, P. aeruginosa ([9]; ATCC 27853) | MIC, Gram negative E. coli [1] | MIC, Gram positive S. aureus [2] | MIC, Gram negative K. pneumoniae [3] | MIC, Fungi, C. albicans [4] | Hemolysis HC10 [5] | Hemolysis HC50 [5] | MIC, Gram positive B. subtilis [6] | MIC, Gram positive E. faecalis [7] | MIC, Gram positive S. epidermidis [8] | MIC, Gram negative P. aeruginosa ([9]; ATCC 27853) | MIC, P. aeruginosa ([9]; Table 3) |
| --- | --- | --- | --- | --- | --- | --- | --- | --- | --- | --- | --- | --- | --- | --- | --- | --- | --- | --- | --- | --- |
| CCCCCCCC/C=C\CCCCCCCC(=O)N[C@@H](CCCCN)CN(CC(N)=O)C(=O)CCCN [γAA7] | 2.5 µg/mL (≈ 4.65 µM) | 5 µg/mL (≈ 9.3 µM) | 50 µg/mL (≈ 93 µM) | 1.5 µg/mL (≈ 2.79 µM) | >500 µg/mL | 2 µg/mL (≈ 3.72 µM) | 2.5 µg/mL (≈ 4.65 µM) | 1 µg/mL (≈ 1.86 µM) | 2.5 µg/mL (≈ 4.65 µM) |  |  |  |  |  |  |  |  |  |  |  |
| CCCCCCCCCCCCCCCC(=O)N[C@@H](CCCCN)CN(CC(=O)N[C@@H](CCCCN)CN(CC(N)=O)C(=O)CCCN)C(=O)CCCN [Sequence 3] |  |  |  |  |  |  |  |  |  | 30 µg/mL (≈ 39.1 µM) | 5 µg/mL (≈ 6.51 µM) | 20 µg/mL (≈ 26 µM) | 2 µg/mL (≈ 2.6 µM) | 40 µg/mL | 300 µg/mL | 1.5 µg/mL (≈ 1.95 µM) | 8 µg/mL (≈ 10.4 µM) | 2.5 µg/mL (≈ 3.25 µM) | 20 µg/mL (≈ 26 µM) |  |
| CCCCCCCCCCCCCCCC(=O)N[C@@H](C)CN(CC(=O)N[C@@H](C)CN(CC(=O)N[C@@H](Cc1ccccc1)CN(CC(=O)N[C@@H](Cc1ccccc1)CN(CC(=O)N[C@@H](Cc1ccccc1)CN(CC(N)=O)C(=O)CC(=O)O)C(=O)CC(=O)O)C(=O)CC(=O)O)C(C)=O)C(C)=O [Sequence 8] |  |  |  |  |  |  |  |  |  | >100 µg/mL | >100 µg/mL | >100 µg/mL | >100 µg/mL | 200 µg/mL | > 500 µg/mL | >100 µg/mL | >100 µg/mL | >100 µg/mL | >100 µg/mL |  |
| CC(=O)N(CC(=O)N[C@@H](C)CN(CC(=O)N[C@@H](CC(C)C)CN(CC(=O)N[C@@H](CC(C)C)CN(CC(=O)N[C@@H](CC(C)C)CN(CC(N)=O)C(=O)CCCN)C(=O)CCCN)C(=O)CCCN)C(C)=O)C[C@H](C)N [Sequence 9] |  |  |  |  |  |  |  |  |  | >100 µg/mL | >100 µg/mL | >100 µg/mL | >100 µg/mL | 120 µg/mL | > 500 µg/mL | >100 µg/mL | >100 µg/mL | >100 µg/mL | >100 µg/mL |  |
| CCCCCCCC/C=C\CCCCCCCC(=O)N[C@@H](CCCCN)CN(CC(N)=O)C(=O)CCCN [Sequence 10] |  |  |  |  |  |  |  |  |  | 2.5 µg/mL (≈ 4.65 µM) | 4 µg/mL (≈ 7.44 µM) | 35 µg/mL (≈ 65.1 µM) | 2 µg/mL (≈ 3.72 µM) | 40 µg/mL | 100 µg/mL | 2 µg/mL (≈ 3.72 µM) | 2.5 µg/mL (≈ 4.65 µM) | 2 µg/mL (≈ 3.72 µM) | 3 µg/mL (≈ 5.58 µM) |  |
| CCCCCCCC/C=C\CCCCCCCC(=O)N[C@@H](CCCCN)C(=O)N[C@@H](CCCCN)CN(CC(N)=O)C(=O)CCCN [Sequence 11] |  |  |  |  |  |  |  |  |  | 10 µg/mL (≈ 15 µM) | 5 µg/mL (≈ 7.51 µM) | 40 µg/mL (≈ 60.1 µM) | 5 µg/mL (≈ 7.51 µM) | 80 µg/mL | > 500 µg/mL | 2 µg/mL (≈ 3 µM) | 2.5 µg/mL (≈ 3.75 µM) | 2 µg/mL (≈ 3 µM) | 15 µg/mL (≈ 22.5 µM) |  |
| CC(C)CCC(=O)N1CC(=O)N[C@@H](Cc2ccccc2)CN(C(=O)CCC(C)C)CC(=O)N[C@@H](Cc2ccccc2)CN(C(=O)CCC(C)C)CC(=O)N[C@@H](CCCCN)CN(C(=O)CCc2ccccc2)CC(=O)N[C@@H](CCCCN)CN(C(=O)CCc2ccccc2)CC(=O)N[C@@H](CCCCN)CN(C(=O)CCc2ccccc2)CC(=O)N[C@@H](Cc2ccccc2)CN(CC(N)=O)C(=O)CCC(=O)N[C@@H](Cc2ccccc2)C1 [γAA6] | 25 to 50 µg/mL | 3 µg/mL (≈ 1.45 µM) | 10 µg/mL (≈ 4.84 µM) | 4 µg/mL (≈ 1.94 µM) | 300 µg/mL | 2 µg/mL (≈ 0.969 µM) | 5 µg/mL (≈ 2.42 µM) | 2 µg/mL (≈ 0.969 µM) |  |  |  |  |  |  |  |  |  |  |  | 10 µg/mL (≈ 4.84 µM) |
| CC(C)CCC(=O)N1CC(=O)N[C@@H](Cc2ccccc2)CN(C(=O)CCC(C)C)CC(=O)N[C@@H](CCCCN)CN(C(=O)CCc2ccccc2)CC(=O)N[C@@H](CCCCN)CN(C(=O)CCc2ccccc2)CC(=O)N[C@@H](CCCCN)CN(C(=O)CCc2ccccc2)CC(=O)N[C@@H](CCCCN)CN(C(=O)CCc2ccccc2)CC(=O)N[C@@H](Cc2ccccc2)CN(CC(N)=O)C(=O)CCC(=O)N[C@@H](Cc2ccccc2)C1 [γAA5] | 12.5 to 25 µg/mL | 1 µg/mL (≈ 0.481 µM) | 8 µg/mL (≈ 3.85 µM) | 2 µg/mL (≈ 0.962 µM) | 100 µg/mL | 1 µg/mL (≈ 0.481 µM) | 5 µg/mL (≈ 2.4 µM) | 2 µg/mL (≈ 0.962 µM) | 8 µg/mL (≈ 3.85 µM) |  |  |  |  |  |  |  |  |  |  |  |
| CCCCCCCCCCCCCCCC(=O)N[C@@H](C)CN(CC(=O)N[C@@H](C)CN(CC(=O)N[C@@H](CCCCN)CN(CC(=O)N[C@@H](CCCCN)CN(CC(=O)N[C@@H](CCCCN)CN(CC(N)=O)C(=O)CCCN)C(=O)CCCN)C(=O)CCCN)C(C)=O)C(C)=O [Sequence 5] |  |  |  |  |  |  |  |  |  | 2.5 µg/mL (≈ 1.87 µM) | 10 µg/mL (≈ 7.48 µM) | 15 µg/mL (≈ 11.2 µM) | 7.5 µg/mL (≈ 5.61 µM) | 200 µg/mL | > 500 µg/mL | 2.5 µg/mL (≈ 1.87 µM) | 10 µg/mL (≈ 7.48 µM) | 10 µg/mL (≈ 7.48 µM) | 15 µg/mL (≈ 11.2 µM) |  |
| CCCCCCCC/C=C\CCCCCCCC(=O)N[C@@H](C)CN(CC(=O)N[C@@H](C)CN(CC(=O)N[C@@H](CC(C)C)CN(CC(=O)N[C@@H](CC(C)C)CN(CC(=O)N[C@@H](CC(C)C)CN(CC(N)=O)C(=O)CCCN)C(=O)CCCN)C(=O)CCCN)C(C)=O)C(C)=O [Sequence 13] |  |  |  |  |  |  |  |  |  | 3 µg/mL (≈ 2.28 µM) | 3 µg/mL (≈ 2.28 µM) | 3 µg/mL (≈ 2.28 µM) | 3 µg/mL (≈ 2.28 µM) | 100 µg/mL | > 500 µg/mL | 3 µg/mL (≈ 2.28 µM) | 4 µg/mL (≈ 3.04 µM) | 3 µg/mL (≈ 2.28 µM) | 3 µg/mL (≈ 2.28 µM) |  |
| CCCCCCCC/C=C\CCCCCCCC(=O)N[C@@H](CCCCN)CN(CC(=O)N[C@@H](CCCCN)CN(CC(N)=O)C(=O)CCCN)C(=O)CCCN [Sequence 12] |  |  |  |  |  |  |  |  |  | 10 µg/mL (≈ 12.6 µM) | 5 µg/mL (≈ 6.3 µM) | 15 µg/mL (≈ 18.9 µM) | 2 µg/mL (≈ 2.52 µM) | 250 µg/mL | > 500 µg/mL | 2.5 µg/mL (≈ 3.15 µM) | 5 µg/mL (≈ 6.3 µM) | 4 µg/mL (≈ 5.04 µM) | 3 µg/mL (≈ 3.78 µM) |  |
| CCCCCCCCCCCCCCCC(=O)N[C@@H](CCCCN)CN(CC(N)=O)C(=O)CCCN [Sequence 2] |  |  |  |  |  |  |  |  |  | 2.5 µg/mL (≈ 4.88 µM) | 2.5 µg/mL (≈ 4.88 µM) | 35 µg/mL (≈ 68.4 µM) | 2 µg/mL (≈ 3.91 µM) | 25 µg/mL | 40 µg/mL | 1.5 µg/mL (≈ 2.93 µM) | 2.5 µg/mL (≈ 4.88 µM) | 2 µg/mL (≈ 3.91 µM) | 10 µg/mL (≈ 19.5 µM) |  |
